This passage reports T/C results from PubChem BioAssay AID256 (DTP/NCI, 2004).

In the assay the test system is CD2F1 mice, L1210 leukemia ip, survival T/C. Put plainly: NCI In Vivo Anticancer Drug Screen. Data for tumor model L1210 Leukemia (intraperitoneal) in CD2F1 (CDF1) mice. To be noted: endpoint: mean survival time, higher = longer survival. The method in brief: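 Mice carrying a transplanted tumor received test compound or vehicle alone. The value is the measurement in the treated group divided by that in the vehicle-treated control group.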

Setting [1] is: dose: 75.0 mg/kg/injection, schedule: Q01DX001 (ip), vehicle: saline.
[2] abbreviates: dose: 150.0 mg/kg/injection, schedule: Q01DX001 (ip), vehicle: saline.
The mark [3] stands for this setting: dose: 100.0 mg/kg/injection, schedule: Q01DX009 (ip), vehicle: saline with Tween-80.
The mark [4] stands for this setting: dose: 100.0 mg/kg/injection, schedule: Q04DX003 (ip), vehicle: saline with Tween-80.
Where [5] appears, read: dose: 200.0 mg/kg/injection, schedule: Q01DX009 (ip), vehicle: saline with Tween-80.
Setting [6] is: dose: 200.0 mg/kg/injection, schedule: Q04DX003 (ip), vehicle: saline with Tween-80.
Setting [7] is: dose: 400.0 mg/kg/injection, schedule: Q04DX003 (ip), vehicle: saline with Tween-80.
[8] abbreviates: dose: 50.0 mg/kg/injection, schedule: Q01DX009 (ip), vehicle: saline with Tween-80.
[9] abbreviates: dose: 100.0 mg/kg/injection, schedule: Q01DX009 (ip), vehicle: Klucel (hydroxypropylcellulose) (HPC).
[10] abbreviates: dose: 50.0 mg/kg/injection, schedule: Q01DX009 (ip), vehicle: Klucel (hydroxypropylcellulose) (HPC).
Setting [11] is: dose: 200.0 mg/kg/injection, schedule: Q01DX009 (ip), vehicle: Klucel (hydroxypropylcellulose) (HPC).

Toxic doses and inconclusive results are not listed.

Take `O=C(N/N=C\C(O)C(O)C(O)C(O)CO)c1ccccc1` (configuration not stated): the T/C is, setting by setting: under setting [1], 100 % of control; under setting [2], 104 % of control; (dose: 300.0 mg/kg/injection, schedule: Q01DX001 (ip), vehicle: saline) 106 % of control.

Take `CCCCC(C)(O)CC` (configuration not stated): the T/C is 93 % of control under setting [3]; 95 % of control under setting [4]; 95 % of control under setting [5]; 105 % of control under setting [6]; 107 % of control under setting [7].

On to `O=C(Nc1ccccc1)Nc1ccc(N(CCCl)CCCl)cc1`, for which the T/C is 105 % of control (dose: 100.0 mg/kg/injection, schedule: Q01DX001 (ip), vehicle: Klucel (hydroxypropylcellulose) (HPC)); 108 % of control (dose: 200.0 mg/kg/injection, schedule: Q01DX001 (ip), vehicle: Klucel (hydroxypropylcellulose) (HPC)); 114 % of control (dose: 400.0 mg/kg/injection, schedule: Q01DX001 (ip), vehicle: Klucel (hydroxypropylcellulose) (HPC)).

As to `OC1(C2(O)c3ccccc3Oc3ccccc32)c2ccccc2Oc2ccccc21`, the T/C is, setting by setting: (dose: 100.0 mg/kg/injection, schedule: Q01DX009 (ip), vehicle: saline) 99 % of control; (dose: 200.0 mg/kg/injection, schedule: Q01DX009 (ip), vehicle: saline) 97 % of control.

For `S=C1OC(c2ccccc2)(c2ccccc2)c2ccsc21`, the T/C was 95 % of control (dose: 25.0 mg/kg/injection, schedule: Q01DX001 (ip), vehicle: saline with Tween-80) and 95 % of control (dose: 50.0 mg/kg/injection, schedule: Q01DX001 (ip), vehicle: saline with Tween-80).

Turning to `Nc1nc(N)c2nc3c4ccccc4c4ccccc4c3nc2n1`, the T/C reads like this: (dose: 100.0 mg/kg/injection, schedule: Q01DX001 (ip), vehicle: saline with Tween-80) 95 % of control; under setting [3], 93 % of control; (dose: 200.0 mg/kg/injection, schedule: Q01DX001 (ip), vehicle: saline with Tween-80) 91 % of control; (dose: 400.0 mg/kg/injection, schedule: Q01DX001 (ip), vehicle: saline with Tween-80) 97 % of control.

For the compound `CC(=O)Nc1ccc(-c2c(N)ncc3ccccc23)cc1`, the T/C runs as follows: (dose: 50.0 mg/kg/injection, schedule: Q04DX003 (ip), vehicle: other) 94 % of control; (dose: 100.0 mg/kg/injection, schedule: Q04DX003 (ip), vehicle: other) 94 % of control; (dose: 200.0 mg/kg/injection, schedule: Q04DX003 (ip), vehicle: other) 96 % of control; (dose: 400.0 mg/kg/injection, schedule: Q04DX003 (ip), vehicle: other) 100 % of control.

With `Oc1c(O)c(Br)c(Br)c(Br)c1Br`, the T/C (dose: 100.0 mg/kg/injection, schedule: Q01DX001 (ip), vehicle: other) was 98 % of control and the T/C (dose: 200.0 mg/kg/injection, schedule: Q01DX001 (ip), vehicle: other) is 103 % of control.

Regarding `Cc1c([N+](=O)[O-])cc(C(C)(C)C)c(OC(=S)N(C)C)c1[N+](=O)[O-]`, the T/C runs as follows: (dose: 6.25 mg/kg/injection, schedule: Q01DX009 (ip), vehicle: saline with Tween-80) 93 % of control; (dose: 12.5 mg/kg/injection, schedule: Q01DX009 (ip), vehicle: saline with Tween-80) 95 % of control; (dose: 25.0 mg/kg/injection, schedule: Q01DX009 (ip), vehicle: saline with Tween-80) 89 % of control.

Consider `S=C(NCCSSCCNC(=S)Nc1ccccc1)Nc1ccccc1`, for which the T/C is 98 % of control under setting [4], 94 % of control under setting [6] and 86 % of control under setting [7].

For the compound `CCO/C=C/C(=O)NC(=O)NC1CC(CO)CC1O` (configuration not stated), the T/C is 97 % of control under setting [8], 97 % of control under setting [3] and 105 % of control under setting [5].

In the case of `CCOC(=O)C12CCCCCC1CC(=O)CC2` (configuration not stated), the T/C was 96 % of control (dose: 100.0 mg/kg/injection, schedule: Q04DX003 (ip), vehicle: acetone); 93 % of control (dose: 200.0 mg/kg/injection, schedule: Q04DX003 (ip), vehicle: acetone); 86 % of control (dose: 400.0 mg/kg/injection, schedule: Q04DX003 (ip), vehicle: acetone).

Regarding `O=C(CCc1ccc(C(=O)C[n+]2ccccc2)cc1)C[n+]1ccccc1`, the T/C is, setting by setting: (dose: 0.5 mg/kg/injection, schedule: Q04DX003 (ip), vehicle: saline) 104 % of control; (dose: 1.0 mg/kg/injection, schedule: Q04DX003 (ip), vehicle: saline) 101 % of control; (dose: 2.0 mg/kg/injection, schedule: Q04DX003 (ip), vehicle: saline) 95 % of control.

Regarding `Cn1c(N)n[nH]c1=S`, the T/C under setting [4] is 93 % of control, the T/C under setting [6] is 108 % of control and the T/C under setting [7] was 88 % of control.

`NNc1ccnc2[nH]ncc12`: the T/C by setting is: (dose: 6.25 mg/kg/injection, schedule: Q01DX005 (ip), vehicle: saline with Tween-80) 106 % of control; (dose: 12.5 mg/kg/injection, schedule: Q01DX005 (ip), vehicle: saline with Tween-80) 103 % of control; (dose: 25.0 mg/kg/injection, schedule: Q01DX005 (ip), vehicle: saline with Tween-80) 101 % of control.

As to `CN(C)N=Nc1cn[nH]c1C(N)=O`, the T/C under setting [9] is 172 % of control.

On to `CC1(C)OC(C(O)COC(=O)c2ccccc2)C(C(O)COC(=O)c2ccccc2)O1` (configuration not stated), for which the T/C is, setting by setting: under setting [10], 98 % of control; under setting [9], 98 % of control; under setting [11], 102 % of control.

Consider `O=S(CCO)c1c(Cl)c(Cl)c(Cl)c(Cl)c1Cl` (configuration not stated), for which the T/C was 94 % of control (dose: 100.0 mg/kg/injection, schedule: Q04DX002 (ip), vehicle: saline with Tween-80) and 94 % of control (dose: 200.0 mg/kg/injection, schedule: Q04DX002 (ip), vehicle: saline with Tween-80).

With `c1ccc(-c2nnc(-c3ccccn3)nn2)nc1`, the T/C by setting is: (dose: 12.5 mg/kg/injection, schedule: Q01DX009 (ip), vehicle: Klucel (hydroxypropylcellulose) (HPC)) 103 % of control; (dose: 25.0 mg/kg/injection, schedule: Q01DX009 (ip), vehicle: Klucel (hydroxypropylcellulose) (HPC)) 101 % of control; under setting [10], 106 % of control; under setting [9], 101 % of control; under setting [11], 95 % of control; (dose: 400.0 mg/kg/injection, schedule: Q01DX009 (ip), vehicle: Klucel (hydroxypropylcellulose) (HPC)) 101 % of control.

Consider `CC(=O)Nc1cccc(OCCOc2ccccc2[N+](=O)[O-])c1`, for which the T/C reads like this: (dose: 100.0 mg/kg/injection, schedule: Q04DX002 (ip), vehicle: Klucel (hydroxypropylcellulose) (HPC)) 95 % of control; (dose: 200.0 mg/kg/injection, schedule: Q04DX002 (ip), vehicle: Klucel (hydroxypropylcellulose) (HPC)) 107 % of control; (dose: 400.0 mg/kg/injection, schedule: Q04DX002 (ip), vehicle: Klucel (hydroxypropylcellulose) (HPC)) 103 % of control.

For `c1cc[c]([Ge]([O][Ge]([c]2ccccc2)([c]2ccccc2)[c]2ccccc2)([c]2ccccc2)[c]2ccccc2)cc1`, the T/C is, setting by setting: (dose: 50.0 mg/kg/injection, schedule: Q04DX003 (ip), vehicle: Klucel (hydroxypropylcellulose) (HPC)) 96 % of control; (dose: 100.0 mg/kg/injection, schedule: Q04DX003 (ip), vehicle: Klucel (hydroxypropylcellulose) (HPC)) 96 % of control; (dose: 200.0 mg/kg/injection, schedule: Q04DX003 (ip), vehicle: Klucel (hydroxypropylcellulose) (HPC)) 96 % of control.

Turning to `Cn1c(=O)c2[nH]c(-c3ccc(Cl)c(Cl)c3)nc2n(C)c1=O`, the T/C reads like this: (dose: 12.5 mg/kg/injection, schedule: Q01DX005 (ip), vehicle: other) 101 % of control; (dose: 25.0 mg/kg/injection, schedule: Q01DX005 (ip), vehicle: other) 92 % of control; (dose: 50.0 mg/kg/injection, schedule: Q01DX005 (ip), vehicle: other) 92 % of control; (dose: 100.0 mg/kg/injection, schedule: Q01DX005 (ip), vehicle: other) 87 % of control; (dose: 200.0 mg/kg/injection, schedule: Q01DX005 (ip), vehicle: other) 89 % of control.

`CCOC(CC)c1ccccc1` (configuration not stated): the T/C was 103 % of control under setting [8], 103 % of control under setting [3] and 106 % of control under setting [5].

`COC(=O)C1=CCN(C)CC1`: the T/C is, setting by setting: (dose: 100.0 mg/kg/injection, schedule: Q04DX003 (ip), vehicle: saline) 97 % of control; (dose: 200.0 mg/kg/injection, schedule: Q04DX003 (ip), vehicle: saline) 96 % of control; (dose: 400.0 mg/kg/injection, schedule: Q04DX003 (ip), vehicle: saline) 90 % of control.

For the compound `CSC(=CC(=O)c1ccccc1)SC`, the T/C is 101 % of control under setting [1] and 106 % of control under setting [2].
